Legend:
AIMP2-DX2 = molecular target: T1, AIMP2-DX2 (Homo sapiens, UniProt Q13155); assay: DX2-nanoluciferase assay (DX2 expression change) in transfected A549 cells; settings: for inhibition at 10 µM / inhibition at 40 µM: A549, 4 h; for inhibition at 10 µM: read-out: DX-Nanoluciferase activity (10 μM), 10 μM, 4 hours treatment, A549 cells transfected with nanoluciferase-DX2; for inhibition at 40 µM: read-out: DX-Nanoluciferase activity (40 μM), 40 μM, 4 hours treatment, A549 cells transfected with nanoluciferase-DX2
T1 sequence (Q13155 1-251 isoform Q13155-2): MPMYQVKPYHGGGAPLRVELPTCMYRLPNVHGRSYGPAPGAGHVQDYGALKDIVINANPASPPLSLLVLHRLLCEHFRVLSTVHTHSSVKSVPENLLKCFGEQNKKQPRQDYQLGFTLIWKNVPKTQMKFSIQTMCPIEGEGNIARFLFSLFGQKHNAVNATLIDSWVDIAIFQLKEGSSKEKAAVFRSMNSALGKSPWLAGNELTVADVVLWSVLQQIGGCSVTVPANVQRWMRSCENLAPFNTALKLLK

A549 cells = assay: Cell viability by MTT method in A549 cells; type: cell-based; set-up: concentration or dose not given beside the values; settings: 72 hours treatment
[1] = inhibitory effect on AIMP2-DX2 expression
[2] = 4 hours treatment, A549 cells transfected with nanoluciferase-DX2

Compound	inhibition at 10 µM (AIMP2-DX2)	Cell Viability (% inhibition) (A549) (A549 cells)	inhibition at 40 µM (AIMP2-DX2; [1])	DX-Nanoluciferase activity (10 μM) (AIMP2-DX2; [2])	DX-Nanoluciferase activity (40 μM) (AIMP2-DX2; 40 μM, 4 hours treatment, A549 cells transfected with nanoluciferase-DX2, inhibitory effect on AIMP2-DX2 expression)
Cc1ccc(S(=O)(=O)N[C@@H](Cc2c[nH]c3ccccc23)C(=O)NC(Cc2c[nH]c3ccccc23)C(=O)O)cc1 (stereo partly drawn) [Compound 226, 2-((S)-3-(1H-indol-3-yl)-2-(4-methylphenylsulfonamido)propanamido)-3-(1H-Indol-3-yl)propanoic acid]	38.1 ± 14.9%	1.11 ± 7.23%	–	–	–
Cc1ccc(S(=O)(=O)N[C@@H](CS)C(=O)N2CCOCC2)cc1 [Compound 41, (R)—N-(3-mercapto-1-morpholino-1-oxopropan-2-yl)-4-methylbenzenesulfonamide]	–	12.16 ± 6.14%	52.5 ± 5.6%	–	–
Cc1ccc(S(=O)(=O)N[C@@H](Cc2c[nH]c3ccccc23)C(=O)Nc2ccc(N3CCN(C(=O)OC(C)(C)C)CC3)cc2)cc1 [Compound 122, (S)-tert-Butyl 4-(4-(3-(1H-indol-3-yl)-2-(4-methylphenylsulfonamido)propanamido)phenyl)piperazine-1-carboxylate]	38 ± 1.7%	69.45 ± 1.3%	–	–	–
CC(C)C[C@H](NC(=O)c1ccc2c(c1)OCO2)C(=O)OCc1ccccc1 [Compound 52, (S)-benzyl 2-(benzo[d][1,3]dioxole-5-carboxamido)-4-methylpentanoate]	–	64.59 ± 5.15%	-5.6 ± 5.2%	–	–
Cc1ccc(S(=O)(=O)N[C@@H](Cc2c[nH]c3ccccc23)C(=O)Nc2ncc(C)s2)cc1 [Compound 112, (S)-3-(1H-indol-3-yl)-2-(4-methylphenylsulfonamido)-N-(5-methylthiazol-2-yl)propanamide]	–	15.01 ± 6.55%	61.5 ± 5.19%	–	–
N[C@@H](Cc1c[nH]c2ccccc12)C(=O)Nc1ccc(N2CCOCC2)cc1 [Compound 160, (S)-2-Amino-3-(1-indol-3-yl)-N-(4-morpholinophenyl)propanamide]	–	15.52 ± 9.58%	–	14.92 ± 17.49 (10 μM)	–
Cc1ccc(S(=O)(=O)N[C@@H](CC(C)C)C(=O)Nc2ncc(N3CCOCC3)s2)cc1 [Compound 86, (S)-4-Methyl-2-(4-methylphenylsulfonamido)-N-(5-morpholinothiazol-2-yl)pentanamide]	–	20.70 ± 1.43%	37.7 ± 6.09%	–	–
CC(C)C[C@H](NC(=O)c1ccc(NC(=O)OC(C)(C)C)cc1)C(=O)OCc1ccccc1 [Compound 53, (S)-benzyl 2-(4-(tert-butoxycarbonylamino)benzamido)-4-methylpentanoate]	–	49.19 ± 13.33%	43.7 ± 9.9%	–	–
Cc1ccc(S(=O)(=O)N[C@@H](Cc2cn(C)c3ccccc23)C(=O)Nc2ccc(N3CCOCC3)cc2)cc1 [Compound 47, (S)-3-(1-methyl-1H-indol-3-yl)-2-(4-methylphenylsulfonamido)-N-(4-morpholinophenyl) propanamide]	–	64.95 ± 2.84%	–	–	38.20 ± 7.73
CON(C)C(=O)[C@H](Cc1c[nH]c2ccccc12)NS(=O)(=O)c1ccc(C)cc1 [Compound 104, (S)-3-(1H-indol-3-yl)-N-methoxy-N-methyl-2-(4-methylphenylsulfonamido)propanamide]	–	6.26 ± 7.67%	64.3 ± 5.96%	–	–
COc1ccc(-c2csc(NC(=O)[C@H](Cc3c[nH]cn3)NS(=O)(=O)c3ccc(Br)cc3)n2)cc1 [Compound 102, (S)-2-(4-Bromophenylsulfonamido)-3-(1H-Imidazol-4-yl)-N-(4-(4-methoxyphenyl)thiazol-2-yl)propanamide]	–	91.03 ± 6.44%	27.2 ± 5.87%	–	–
Cc1ccc(S(=O)(=O)N[C@@H](CC(=O)OC(C)(C)C)C(=O)N2CCOCC2)cc1 [Compound 37, (S)-tert-butyl 3-(4-methylphenylsulfonamido)-4-morpholino-4-oxobutanoate]	–	20.33%	45 ± 7.8%	–	–
Cc1ccc(S(=O)(=O)N[C@@H](CC(C)C)C(=O)NCCN2CCOCC2)cc1 [Compound 18, (S)-4-methyl-2-(4-methylphenylsulfonamido)-N-(2-morpholinoethyl)pentanamide]	–	8.7%	14.8%	–	–
Cc1ccc(S(=O)(=O)N[C@@H](CO)C(=O)N2CCOCC2)cc1 [Compound 39, (S)—N-(3-hydroxy-1-morpholino-1-oxopropan-2-yl)-4-methylbenzenesulfonamide]	–	−2.43 ± 0.94%	7.7 ± 11.2%	–	–
Cc1ccc(S(=O)(=O)N[C@@H](Cc2c[nH]c3ccccc23)C(=O)Nc2ccc(N3CCOCC3)cc2)c(C)c1 [Compound 72, (S)-2-(2,4-Dimethylphenylsulfonamido)-3-(1H-indol-3-yl)-N-(4-morpholinophenyl)propanamide]	–	73.73 ± 0.78%	21.5 ± 7.62%	–	–
Cc1ccc(S(=O)(=O)NC2(C(=O)N3CCOCC3)CCCCC2)cc1 [Compound 156, 4-Methyl-N-(1-(morpholine-4-carbonyl)cyclohexyl)benzenesulfonamide]	–	13.51 ± 2.04%	-0.2 ± 6.6%	–	–
COc1ccc(C(=O)NNC(=O)[C@H](Cc2c[nH]c3ccccc23)NS(=O)(=O)c2ccc(C)cc2)cc1 [Compound 182, (S)—N-(3-(1H-indol-3-yl)-1-(2-(4-methoxybenzoyl)hydrazinyl)-1-oxopropan-2-yl)-4-methylbenzenesulfonamide]	–	0.19 ± 15.38%	–	69.62 ± 3.16 (10 μM)	–
CCOC(=O)C(Cc1c[nH]c2ccc(C(=O)O)cc12)NS(=O)(=O)c1ccc(C)cc1 (centres unmarked) [Compound 73, 3-(3-Ethoxy-2-(4-methylphenylsulfonamido)-3-oxopropyl)-1H-indole-5-carboxylic acid]	–	4.32 ± 2.95%	44.2 ± 3.91%	–	–
CC(C)C[C@H](NS(=O)(=O)c1ccc(C(C)C)cc1)C(=O)Nc1ccc(N2CCOCC2)cc1 [Compound 32, (S)-2-(4-isopropylphenylsulfonamido)-4-methyl-N-(4-morpholinophenyl)pentanamide]	–	20.27 ± 5.87%	25.8 ± 2.5%	–	–
CC(C)C[C@H](NS(=O)(=O)c1cccc2ccccc12)C(=O)Nc1ccc(N2CCOCC2)cc1 [Compound 25, (S)-4-methyl-N-(4-morpholinophenyl)-2-(naphthalene-1-sulfonamido)pentanamide]	–	38.92 ± 1.69%	25.5 ± 5.4%	–	–
COc1ccc(-c2csc(NC(=O)[C@H](Cc3c[nH]c4ccc(O)cc34)NS(=O)(=O)c3ccc(Br)cc3)n2)cc1 [Compound 217, (S)-2-(4-Bromophenylsulfonamido)-3-(5-hydroxy-1H-indol-3-yl)-N-(4-(4-methoxyphenyl)thiazol-2-yl)propanamide]	21.3%	89.41 ± 0.79%	–	–	–
Cc1ccc(S(=O)(=O)N[C@@H](CC(C)C)C(=O)Nc2cc(N3CCC(C)CC3)ncn2)cc1 [Compound 10, (S)-4-methyl-2-(4-methylphenylsulfonamido)-N-(6-(4-methylpiperidin-1-yl)pyrimidin-4-yl)pentanamide]	–	72.7%	1.5%	–	–
Cc1ccc(S(=O)(=O)N[C@@H](Cc2c[nH]c3ccccc23)C(=O)Nc2nc(C)cs2)cc1 [Compound 83, (S)-3-(1H-indol-3-yl)-2-(4-methylphenylsulfonamido)-N-(4-methylthiazol-2-yl)propanamide]	–	97.43 ± 2.01%	17.4 ± 3.23%	–	–
Cc1ccc(S(=O)(=O)N[C@@H](Cc2ccc(OS(=O)(=O)c3ccc(C)cc3)cc2)C(=O)Nc2ccc(N3CCOCC3)cc2)cc1 [Compound 101, (S)-4-(2-(4-Methylphenylsulfonamido)-3-(4-morpholinophenylamino)-3-oxopropyl)phenyl 4-methylbenzenesulfonate]	–	35.10 ± 5.95%	10.9 ± 4.88%	–	–
Cc1ccc(S(=O)(=O)N[C@@H](Cc2c[nH]c3ccccc23)C(=O)OCc2ccccc2)cc1 [Compound 127, (S)-Benzyl 3-(1H-indol-3-yl)-2-(4-methylphenylsulfonamido)propanoate]	–	94.24 ± 0.54%	49.9 ± 1.6%	–	–
Cc1ccc(CCNC(=O)[C@H](Cc2c[nH]c3ccccc23)NS(=O)(=O)c2ccc(C)cc2)cc1 [Compound 223, (S)-3-(1H-indol-3-yl)-N-(4-methylphenethyl)-2-(4-methylphenylsulfonamido)propanamide]	34.9 ± 11.8%	93.28 ± 1.51%	–	–	–
COc1cc(N2CCNCC2)ccc1NC(=O)[C@H](Cc1c[nH]c2ccccc12)NS(=O)(=O)c1ccc(C)cc1 [Compound 121, (S)-3-(1H-indol-3-yl)-N-(2-methoxy-4-(piperazin-1-yl)phenyl)-2-(4-methylphenylsulfonamido)propanamide]	41.7 ± 17.3%	51.15 ± 0.5%	–	–	–
CC(C)C[C@H](NS(=O)(=O)c1cccs1)C(=O)Nc1ccc(N2CCOCC2)cc1 [Compound 30, (S)-4-methyl-N-(4-morpholinophenyl)-2-(thiophene-2-sulfonamido)pentanamide]	–	9.46 ± 9.61%	23.7 ± 3.1%	–	–
